In one assay the test system is P. acnes PRP-002. The assay is classed as cell-based, Propionibacterium acnes. The note with it: P. acnes PRP-002 (Tet/MLS); 50 μg DC or 200 μg ZP per disc. The protocol: (§1) Some of these strains have known antibiotic resistance.
(§2) All the experiments were conducted in triplicate.

A further assay has as its system P. acnes PRP-003. In kind it is cell-based, Propionibacterium acnes. The note with it: P. acnes PRP-003 (Tet); 50 μg DC or 200 μg ZP per disc. As for the experimental part:
as §1, §2

The test system of a further assay is P. acnes PRP-004. The assay is classed as cell-based, Propionibacterium acnes. The note with it: P. acnes PRP-004 (Tet); 50 μg DC or 200 μg ZP per disc. The protocol: as §1, §2
The test system of a further assay is P. acnes PRP-008. In kind it is cell-based, Propionibacterium acnes. As to conditions: P. acnes PRP-008 (Clin); 50 μg DC or 200 μg ZP per disc. The protocol:
as §1, §2

For another assay, the system named is P. acnes PRP-017. In kind it is cell-based, Propionibacterium acnes. The note with it: P. acnes PRP-017 (MLS); 50 μg DC or 200 μg ZP per disc. As for the experimental part: as §1, §2
A further assay has as its system P. acnes PRP-023. The assay is classed as cell-based, Propionibacterium acnes. As to conditions: P. acnes PRP-023 (MLSK); 50 μg DC or 200 μg ZP per disc. The protocol: as §1, §2
In another assay the test system is P. acnes PRP-026. In kind it is cell-based, Propionibacterium acnes. As to conditions: P. acnes PRP-026 (MLS); 50 μg DC or 200 μg ZP per disc. The protocol: as §1, §2
The test system of another assay is P. acnes PRP-053. The assay is classed as cell-based, Propionibacterium acnes. As to conditions: P. acnes PRP-053 (Tet/MLS); 50 μg DC or 200 μg ZP per disc. The protocol:
as §1, §2

The subject of the next assay is P. acnes PRP-059. The assay is classed as cell-based, Propionibacterium acnes. As to conditions: P. acnes PRP-059 (MLS); 50 μg DC or 200 μg ZP per disc. As for the experimental part: as §1, §2
A further assay concerns P. acnes PRP-068. In kind it is cell-based, Propionibacterium acnes. The note with it: P. acnes PRP-068 (Ery); 50 μg DC or 200 μg ZP per disc. As for the experimental part: as §1, §2
The next assay has as its system P. acnes PRP-101. In kind it is cell-based, Propionibacterium acnes. As to conditions: P. acnes PRP-101 (Tet/MLS); 50 μg DC or 200 μg ZP per disc. The protocol: as §1, §2
Another assay relates to P. acnes PRP-102. In kind it is cell-based, Propionibacterium acnes. As to conditions: P. acnes PRP-102 (Tet/MLS); 50 μg DC or 200 μg ZP per disc. As for the experimental part:
as §1, §2

The next assay deals with P. acnes PRP-007. The assay is described as follows: (S)DDA. The note with it: P. acnes PRP-007 (Clin); 50 μg DC or 200 μg ZP per disc. The assay is classed as cell-based, Propionibacterium acnes. The protocol:
as §1, §2

A further assay relates to P. acnes PRP-046. The assay is described as follows: (S)DDA. In kind it is cell-based, Propionibacterium acnes. The note with it: P. acnes PRP-046 (resistance None); 50 μg DC or 200 μg ZP per disc. As for the experimental part: as §1, §2
Another assay deals with P. granulosum NCTC 11865. Kind of assay: (S)DDA. In kind it is cell-based, Propionibacterium granulosum. The note with it: P. granulosum NCTC 11865 (resistance None); 50 μg DC or 200 μg ZP per disc. The protocol: as §1, §2
Another assay has as its system P. granulosum PRP-055. Kind of assay: (S)DDA. In kind it is cell-based, Propionibacterium granulosum. As to conditions: P. granulosum PRP-055 (resistance None); 50 μg DC or 200 μg ZP per disc. As for the experimental part: as §1, §2
Assay [1] concerns Cor. mucifaciens ATCC 700355. The assay is described as follows: (S)DDA. In kind it is cell-based, Corynebacterium mucifaciens. As for the experimental part:
The activity of a DC/ZP combination was determined, using (S)DDAs, against two further test micro-organisms, namely C. difficile ATCC 7000057 and Cor. mucifaciens ATCC 700355. A DI/ZP combination was also tested against Cor. mucifaciens.
In these tests, 50 μg (for C. difficile) or 200 μg (for Cor. mucifaciens) of the DC was loaded onto each disc. The DI and the ZP were both loaded at 200 μg per disc. All the (S)DDA experiments were conducted in triplicate.

[2] abbreviates: Table 6, 200 μg DC or 200 μg ZP per disc.

Consider zinc pyrithione [ZP], for which the DDA is reported as 25.79 mm with P. acnes PRP-002; 26.82 mm in the assay with P. acnes PRP-003; 12.43 mm in the assay with P. acnes PRP-004; 14.90 mm in the assay on P. acnes PRP-008; 19.01 mm with P. acnes PRP-017; 17.37 mm in the assay on P. acnes PRP-023. Besides, the DDA in the assay with P. acnes PRP-026 came out at 16.24 mm; in the assay on P. acnes PRP-053, 29.91 mm; in the assay on P. acnes PRP-059, 16.34 mm; in the assay with P. acnes PRP-068, 14.90 mm; with P. acnes PRP-101, 14.39 mm; with P. acnes PRP-102, 16.85 mm. Also, the DDA was determined as 10.79 mm in the assay with P. acnes PRP-007; 35.56 mm in the assay on P. acnes PRP-046; 23.95 mm in the assay with P. granulosum NCTC 11865; 50.05 mm in the assay on P. granulosum PRP-055; 28.14 mm in [1] (setting [2]); 28.14 mm in assay [1] (Table 7, 200 μg DI or 200 μg ZP per disc).
As to `Cc1cc(N)c2ccccc2[n+]1CCCCCCCCCC[n+]1c(C)cc(N)c2ccccc21.[Cl-].[Cl-]` [DC, dequalinium chloride], the DDA with P. acnes PRP-002 stood at 20.04 mm; with P. acnes PRP-003, 21.27 mm; in the assay with P. acnes PRP-004 it was 20.45 mm; in the assay with P. acnes PRP-008, 19.73 mm; in the assay with P. acnes PRP-017, 17.27 mm; in the assay with P. acnes PRP-023 it was 19.32 mm. Besides, the DDA with P. acnes PRP-026 amounted to 19.01 mm; in the assay with P. acnes PRP-053, 21.38 mm; in the assay on P. acnes PRP-059, 19.42 mm; in the assay with P. acnes PRP-068, 20.45 mm; in the assay on P. acnes PRP-101, 16.96 mm; with P. acnes PRP-102 it was 21.68 mm. In addition, the DDA is recorded as 18.91 mm with P. acnes PRP-007; 21.38 mm in the assay with P. acnes PRP-046; 14.08 mm in the assay with P. granulosum NCTC 11865; 29.08 mm in the assay with P. granulosum PRP-055; 17.2 mm in [1] (setting [2]).

Source of the values: US20100291168A1, “ANTIMICROBIAL FORMULATIONS COMPRISING A COMBINATION OF A PYRIDINE THIOL AND A BIS-QUINOLINIUM SALT” (priority 2007, published 2010).
